Legend:
Test in all cases: radiometric filter-binding kinase assay, Kinase HotSpot
Conditions in all cases: compound 0.5 µM; ATP 10 µM
[1] = system: PRKCQ (human), Q04759 [P330L]
[2] = system: MKNK1 (human), Q9BUB5 [T385D; 165-205 del]
[3] = system: FLT4 (human), P35916 [Q890H]
[4] = system: MAP2K6 (human), P52564 [S207E/T211E]
MAP2K6 (human), P52564 [S207E/T211E], sequence (P52564 whole entry S207E/T211E, looked up): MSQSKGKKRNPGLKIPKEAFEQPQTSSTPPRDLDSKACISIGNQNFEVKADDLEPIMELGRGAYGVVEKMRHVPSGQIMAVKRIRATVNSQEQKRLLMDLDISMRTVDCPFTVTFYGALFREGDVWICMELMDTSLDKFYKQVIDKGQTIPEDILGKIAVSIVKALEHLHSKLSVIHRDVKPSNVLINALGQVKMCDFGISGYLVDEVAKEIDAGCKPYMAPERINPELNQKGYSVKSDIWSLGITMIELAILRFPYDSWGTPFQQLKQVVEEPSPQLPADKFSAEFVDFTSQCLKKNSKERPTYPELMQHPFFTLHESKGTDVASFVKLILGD

MKNK1 (human), Q9BUB5 [T385D; 165-205 del], sequence (Q9BUB5 whole entry, looked up, stated change not applied): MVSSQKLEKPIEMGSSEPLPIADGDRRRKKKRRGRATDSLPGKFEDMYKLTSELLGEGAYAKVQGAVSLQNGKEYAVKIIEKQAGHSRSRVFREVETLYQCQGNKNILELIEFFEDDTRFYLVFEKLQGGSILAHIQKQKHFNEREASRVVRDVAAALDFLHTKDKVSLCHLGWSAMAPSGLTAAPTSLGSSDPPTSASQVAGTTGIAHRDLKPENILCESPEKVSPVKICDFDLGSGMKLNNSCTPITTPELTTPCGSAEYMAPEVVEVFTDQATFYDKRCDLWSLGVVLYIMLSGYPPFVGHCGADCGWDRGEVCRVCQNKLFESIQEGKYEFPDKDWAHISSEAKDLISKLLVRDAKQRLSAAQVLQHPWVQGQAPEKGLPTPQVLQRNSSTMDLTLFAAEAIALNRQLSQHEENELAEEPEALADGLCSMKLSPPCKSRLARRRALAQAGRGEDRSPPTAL
PRKCQ (human), Q04759 [P330L], sequence (Q04759 whole entry P330L, looked up): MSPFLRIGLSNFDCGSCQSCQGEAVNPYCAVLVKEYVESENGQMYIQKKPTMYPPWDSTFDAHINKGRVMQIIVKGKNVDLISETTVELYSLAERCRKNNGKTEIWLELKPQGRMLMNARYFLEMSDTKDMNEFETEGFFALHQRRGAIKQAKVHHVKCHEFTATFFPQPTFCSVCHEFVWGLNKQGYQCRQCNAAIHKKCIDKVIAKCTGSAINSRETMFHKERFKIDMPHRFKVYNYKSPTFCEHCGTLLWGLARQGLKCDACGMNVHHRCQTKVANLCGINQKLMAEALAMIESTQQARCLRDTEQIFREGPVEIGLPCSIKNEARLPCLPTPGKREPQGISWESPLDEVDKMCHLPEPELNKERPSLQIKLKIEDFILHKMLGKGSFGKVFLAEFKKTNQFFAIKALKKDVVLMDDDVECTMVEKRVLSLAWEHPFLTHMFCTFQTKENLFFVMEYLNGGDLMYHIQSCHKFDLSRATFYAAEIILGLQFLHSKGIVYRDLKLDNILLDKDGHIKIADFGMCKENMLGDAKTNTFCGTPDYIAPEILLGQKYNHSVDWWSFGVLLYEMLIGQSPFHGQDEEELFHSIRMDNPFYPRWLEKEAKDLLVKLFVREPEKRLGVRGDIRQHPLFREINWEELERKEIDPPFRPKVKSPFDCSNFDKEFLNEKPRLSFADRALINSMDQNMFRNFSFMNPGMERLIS
FLT4 (human), P35916 [Q890H], sequence (P35916 whole entry, looked up, stated change not applied): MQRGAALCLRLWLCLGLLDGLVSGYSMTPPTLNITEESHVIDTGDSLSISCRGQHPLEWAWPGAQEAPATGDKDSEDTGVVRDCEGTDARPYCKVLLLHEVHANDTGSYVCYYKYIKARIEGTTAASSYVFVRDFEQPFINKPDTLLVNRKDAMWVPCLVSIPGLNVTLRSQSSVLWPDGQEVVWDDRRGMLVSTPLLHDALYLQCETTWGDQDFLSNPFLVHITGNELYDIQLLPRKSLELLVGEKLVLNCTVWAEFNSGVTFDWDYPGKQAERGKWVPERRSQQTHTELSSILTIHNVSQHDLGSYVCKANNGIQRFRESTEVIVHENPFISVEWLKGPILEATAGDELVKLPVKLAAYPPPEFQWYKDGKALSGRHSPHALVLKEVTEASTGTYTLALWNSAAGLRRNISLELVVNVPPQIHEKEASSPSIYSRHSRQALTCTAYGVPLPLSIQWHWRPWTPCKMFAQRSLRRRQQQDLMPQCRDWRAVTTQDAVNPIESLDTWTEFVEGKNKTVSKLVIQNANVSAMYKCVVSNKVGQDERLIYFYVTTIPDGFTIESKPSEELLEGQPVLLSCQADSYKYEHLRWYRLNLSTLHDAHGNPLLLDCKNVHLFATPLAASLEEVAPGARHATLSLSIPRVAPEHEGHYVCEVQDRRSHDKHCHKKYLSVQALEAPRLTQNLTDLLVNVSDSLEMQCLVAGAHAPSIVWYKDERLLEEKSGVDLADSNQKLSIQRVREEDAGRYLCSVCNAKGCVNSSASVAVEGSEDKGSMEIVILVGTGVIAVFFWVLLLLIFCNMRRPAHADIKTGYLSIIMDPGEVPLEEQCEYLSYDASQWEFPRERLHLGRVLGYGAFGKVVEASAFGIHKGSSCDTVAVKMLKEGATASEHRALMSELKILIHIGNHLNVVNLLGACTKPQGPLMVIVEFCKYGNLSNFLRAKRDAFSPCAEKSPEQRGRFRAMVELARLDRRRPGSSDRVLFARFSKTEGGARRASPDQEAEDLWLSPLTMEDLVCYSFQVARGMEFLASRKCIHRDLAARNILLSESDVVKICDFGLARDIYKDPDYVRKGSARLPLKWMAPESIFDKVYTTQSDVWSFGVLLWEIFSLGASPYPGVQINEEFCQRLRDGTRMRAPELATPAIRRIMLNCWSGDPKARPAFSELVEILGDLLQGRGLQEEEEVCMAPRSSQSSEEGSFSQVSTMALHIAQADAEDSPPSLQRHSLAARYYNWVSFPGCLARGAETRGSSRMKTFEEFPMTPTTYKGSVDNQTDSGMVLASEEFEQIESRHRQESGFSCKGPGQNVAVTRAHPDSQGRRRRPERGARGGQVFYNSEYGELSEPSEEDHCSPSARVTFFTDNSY

| SMILES | residual activity [1] [%] | residual activity [2] [%] | residual activity [3] [%] | residual activity [4] [%] |
| --- | --- | --- | --- | --- |
| O=c1c2ccccc2[nH]c(=S)n1CCN1CCC(=C(c2ccc(F)cc2)c2ccc(F)cc2)CC1 | 92.2 | 101 | 107 | 102 |
| COc1cccc(-c2cc(=O)c3ccccc3o2)c1N | 103 | 95.4 | 90.8 | 92.4 |
| CC(=O)O/N=C1\C(=C2\C(=O)Nc3cc(Br)ccc32)Nc2ccccc21 | 72 | 95.2 | 93.7 | 87.2 |
| CCCCc1c(-c2ccc(O)cc2)[nH]c2nccnc12 | 118 | 94.5 | 77.4 | 100 |
| Nc1ncnc2c1cnn2-c1ccccc1 | 102 | 81.4 | 108 | 90.8 |
| COc1cc2ncnc(N3CCN(C(=O)Nc4ccc(Oc5ccccc5)cc4)CC3)c2cc1OC | 97.3 | 94.9 | 101 | 96 |
| Clc1ccc(Nc2nnc(Cc3ccncc3)c3ccccc23)cc1 | 73.5 | 98.5 | 62.8 | 95.3 |
| O=C1Nc2ccccc2/C1=C\c1c(Cl)[nH]c2ccccc12 | 91.7 | 105 | 108 | 93.4 |
| CC[C@@H](CO)Nc1nc(NCc2ccccc2)c2ncn(C(C)C)c2n1 | 90 | 96.4 | 94 | 98.2 |
| O=C(Nc1cccc(Nc2cc(Nc3cccc(C(F)(F)F)c3)ncn2)c1)C1CC1 | 87.8 | 96.7 | 107 | 108 |
| Nc1n[nH]c2nnc(-c3c(-c4ccccc4)nn4ccccc34)cc12 | 79.9 | 98.5 | 89.9 | 90.9 |
| CCN(CC)C(=O)c1ccc(Nc2nc(OCC3CCCCC3)c3nc[nH]c3n2)cc1 | 97.9 | 97.5 | 25.9 | 93.1 |
| O=C(CCCc1ccc(-c2ccccc2F)cc1)Nc1ccc(O)cc1 | 107 | 111 | 99.3 | 97.5 |
| Nc1ccc2ncnc(NCCc3ccc(Oc4ccccc4)cc3)c2c1 | 108 | 106 | 101 | 96.6 |
| O=C1Cc2c([nH]c3ccc(Br)cc23)-c2ccccc2N1 | 114 | 98.4 | 78.7 | 95.3 |
| COc1cc2c(N3CCN(C(=O)Nc4ccc(OC(C)C)cc4)CC3)ncnc2cc1OCCCN1CCCCC1 | 103 | 89.7 | 94.6 | 102 |
| CCC(=O)Nc1ccc2ncnc(Nc3cccc(Br)c3)c2c1 | 96.3 | 82.8 | 91.5 | 94.5 |
| Cc1ccc(NC2=CC(=O)c3sc(C)nc3C2=O)cc1 | 93 | 117 | 95.7 | 90.4 |
| O=c1[nH]c2ccccc2n1C1CCN(Cc2ccc(-c3nc4cc5[nH]cnc5cc4nc3-c3ccccc3)cc2)CC1 | 96.4 | 104 | 98.7 | 101 |
| O=C1Nc2ccccc2/C1=C1/Nc2ccccc2/C1=N\OCCC(O)CO (stereo not drawn) | 92.9 | 95.3 | 22.3 | 79.7 |
| CNC(=O)c1cc(Oc2ccc(NC(=O)Nc3ccc(Cl)c(C(F)(F)F)c3)cc2)ccn1 | 100 | 75.1 | 43 | 96.9 |
| Nc1cccc(-c2cc3c(Oc4cccc(O)c4)ncnc3[nH]2)c1 | 64.5 | 87.6 | 15.8 | 90.1 |
| O=C(c1ccccc1)c1ccc(N2CCOCC2)cc1O | 92.5 | 103 | 112 | 93.5 |
| FC(F)(F)c1ccc(/C=C/c2nc(COc3ccc(CCCCn4ccnn4)cc3)co2)cc1 | 99.9 | 89.5 | 98 | 100 |
| O=C1NC(=O)C(c2cn(CCCO)c3ncccc23)=C1c1cnccn1 | 81.7 | 100 | 92.3 | 91.1 |
| CCc1nc(-c2ccc(OC)cc2)[nH]c1-c1ccncc1 | 121 | 115 | 123 | 110 |

| SMILES | residual activity [1] [%] | residual activity [2] [%] | residual activity [3] [%] | residual activity [4] [%] |
| --- | --- | --- | --- | --- |
| O=C1Cc2c([nH]c3ccc([N+](=O)[O-])cc23)-c2ccccc2N1 | 98.2 | 76.9 | 77.8 | 98.3 |
| O=C(Nc1cccc(Nc2nccc(Nc3cccc(C(F)(F)F)c3)n2)c1)C1CC1 | 107 | 91 | 95.9 | 98.3 |
| Nc1nccc(-c2c(-c3ccc(F)cc3)ncn2C2CCNCC2)n1 | 107 | 99 | 116 | 106 |
| CC(C)n1cnc2c(Nc3cccc(Cl)c3)nc(NCCO)nc21 | 91.4 | 98.7 | 92.6 | 88.9 |
| O=C(O)c1ccc2c3c1cccc3c(=O)n1c3ccccc3nc21 | 117 | 60.3 | 82.5 | 103 |
| Cn1nc2c3c(cccc31)C(=O)c1ccccc1-2 | 106 | 105 | 86.8 | 96.4 |
| CC(C)[C@H](CO)Nc1nc(Nc2cccc(Cl)c2)c2ncn(C(C)C)c2n1 | 127 | 79.8 | 110 | 105 |
| O=C1NC(=O)/C(=C/c2ccc3c(c2)OC(F)(F)O3)S1 | 101 | 93.1 | 107 | 92.3 |
| N#C/C(=C(/N)Sc1ccc(N)cc1)c1ccccc1C(F)(F)F | 104 | 103 | 99.8 | 97.5 |
| COc1ccc(-c2cnc3c(-c4ccsc4)cnn3c2)cc1 | 98.7 | 87.1 | 94.1 | 95.9 |
| CCn1cnc2c(Nc3cccc(Cl)c3)nc(N[C@@H]3CCCC[C@@H]3N)nc21 | 93.3 | 101 | 105 | 100 |
| COc1cc2ncnc(Nc3ccc(O)c(Br)c3)c2cc1OC | 92.8 | 32.7 | 48.5 | 84.9 |
| CN([C@@H](Cc1ccc(OS(=O)(=O)c2cccc3cnccc23)cc1)C(=O)N1CCN(c2ccccc2)CC1)S(=O)(=O)c1cccc2cnccc12 | 108 | 106 | 90.5 | 104 |
| Oc1cccc(-c2nc(N3CCOCC3)c3oc4ncccc4c3n2)c1 | 105 | 102 | 104 | 86.6 |
| O=C1NC(=O)c2cc(Nc3ccc(F)cc3)c(Nc3ccc(F)cc3)cc21 | 98.7 | 103 | 102 | 110 |
| COc1cc2nccc(Oc3ccc(NC(=S)NC(=O)c4ccccc4C)cc3)c2cc1OC | 107 | 93.2 | 73.8 | 94.9 |
| N/C(=N\N=C/c1ccc(-c2cccc([N+](=O)[O-])c2)o1)N[N+](=O)[O-] | 94.6 | 97.4 | 86.3 | 111 |
| O=C(NC(NC(=S)Nc1ccc(F)c([N+](=O)[O-])c1)C(Cl)(Cl)Cl)C(c1ccccc1)c1ccccc1 (stereo not drawn) | 107 | 100 | 102 | 107 |
| N#CCCc1ccc2c(c1)-c1[nH]c3ccc([N+](=O)[O-])cc3c1CC(=O)N2 | 111 | 66.7 | 66.5 | 97.2 |
| O=S(=O)(NCCNC/C=C/c1ccc(Br)cc1)c1cccc2cnccc12 | 104 | 93.4 | 108 | 81.3 |
| O=C1Nc2ccccc2/C1=C1\Nc2ccccc2\C1=N/O | 99.1 | 99.6 | 53 | 83.5 |
| CC(C)(C)c1nc2c3ccc(F)cc3c3c(=O)[nH]ccc3c2[nH]1 | 66.8 | 101 | 71.2 | 89 |
| CCN(CC)CCCCN1c2ccccc2Oc2ccc(Cl)cc21 | 97.5 | 95.6 | 98.8 | 102 |
| Cc1cc2ncc(-c3ccccc3)nc2cc1C | 97 | 80.3 | 115 | 91.1 |
| CC[n+]1c(/C=C/N(C)c2ccccc2)n(-c2ccccc2)c2ccc(-c3nc4ccccc4s3)cc21 | 94.6 | 102 | 90.9 | 103 |
| O=C1NC(=O)C(c2c[nH]c3ccccc23)=C1c1c[nH]c2ccccc12 | 33.8 | 115 | 35.2 | 98 |
